Measured values reported in patent publication US20090130212A1, “COMPOSITION AND IMPROVED METHOD FOR PREPARATION OF SMALL PARTICLES” (PHYSICAL PHARMACEUTICA, LLC, priority 2006, published 2009).

Legend:
Assay type in all cases: physicochemical
[1] = Aqueous solubility of ibuprofen; conditions: pH 2, in 50 ml
[2] = pKa / ionization of ibuprofen; conditions: pH of 2
[3] = Dissolution of ibuprofen in 0.01N HCl, microdialysis sampling and HPLC (Example 3); conditions: 50 ml 0.01N HCl pH 2, 25° C
Description: The remaining ether was removed by evaporation at room temperature in a vacuum oven at less than 10 torr, for 2 hours.

## CC(C)Cc1ccc(C(C)C(=O)O)cc1 (centres unmarked) [pure ibuprofen, ibuprofen]
[1]
  amount dissolved corresponding to solubility: 4000 µg
[2]
  fraction unionized: more than 99%
[3]; after five minutes
  amount of ibuprofen dissolved: approximately 790 mcg
[3]; after one minute
  amount of ibuprofen dissolved: approximately 190 mcg
[3]; after two minutes
  amount of ibuprofen dissolved: approximately 350 mcg
